Laboratory results published in PubChem BioAssay (NCI).
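Five compound concentrations were applied to cells in 96-well plates for 48 hours; endpoints were derived by simple linear interpolation of the resulting dose-response curve. Definition used: TGI = concentration required for complete inhibition of growth.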

Tests used:
Assay in all cases: NCI-60 cell line screen, 48 h
[1] = tested on: BT-549 breast
[2] = tested on: DU-145 prostate
[3] = tested on: HCT-116 colon
[4] = tested on: HL-60(TB) leukemia
[5] = tested on: HS 578T breast
[6] = tested on: IGROV1 ovarian
[7] = tested on: MCF7 breast
[8] = tested on: MDA-MB-231 breast
[9] = tested on: NCI-H23 lung
[10] = tested on: NCI/ADR-RES ovarian
[11] = tested on: OVCAR-3 ovarian
[12] = tested on: PC-3 prostate
[13] = tested on: RXF 393 renal
[14] = tested on: SK-MEL-28 melanoma
[15] = tested on: SR leukemia
[16] = tested on: T-47D breast
[17] = tested on: UACC-257 melanoma
[18] = tested on: DMS 114 small cell lung
[19] = tested on: DMS 273 small cell lung
[20] = tested on: SNB-78 CNS

## Cc1cccc2c(NCCN(C)C)c3cccc(C(=O)NCCN(C)C)c3nc12
[1]
  TGI: 4.55 µM
[2]
  TGI: 3.61 µM
[3]
  TGI: 4.87 µM
[4]
  TGI: 0.637 µM
[5]
  TGI: 1.82 µM
[6]
  TGI: 6.64 µM
[7]
  TGI: 2.85 µM
[8]
  TGI: 0.728 µM
[9]
  TGI: 1.3 µM
[10]
  TGI: 11.6 µM
[11]
  TGI: 5.54 µM
[12]
  TGI: 6.73 µM
[13]
  TGI: 2.54 µM
[14]
  TGI: 8.37 µM
[15]
  TGI: 0.319 µM
[16]
  TGI: 19.7 µM
[17]
  TGI: 2.47 µM

## C[C@]12CCc3nonc3C1CC[C@@H]1C2CC[C@@]2(C)C1CC[C@@H]2O (some centres undefined)
[18]
  TGI: > 100 µM
[19]
  TGI: > 100 µM
[4]
  TGI: > 100 µM
[6]
  TGI: > 100 µM
[9]
  TGI: > 100 µM
[11]
  TGI: > 100 µM
[13]
  TGI: > 100 µM
[14]
  TGI: > 100 µM
[20]
  TGI: > 100 µM
[17]
  TGI: > 100 µM

## COC(=O)[C@@H]1C[C@]2(Br)c3ccccc3N(S(=O)(=O)c3ccccc3)[C@@H]2N1C(=O)OC
[1]
  TGI: > 100 µM
[2]
  TGI: > 100 µM
[3]
  TGI: > 100 µM
[4]
  TGI: > 100 µM
[5]
  TGI: > 100 µM
[6]
  TGI: > 100 µM
[7]
  TGI: > 100 µM
[8]
  TGI: > 100 µM
[9]
  TGI: > 100 µM
[10]
  TGI: > 100 µM
[11]
  TGI: > 100 µM
[12]
  TGI: > 100 µM
[13]
  TGI: 61.8 µM
[14]
  TGI: > 100 µM
[15]
  TGI: > 100 µM
[16]
  TGI: > 100 µM
[17]
  TGI: 14.6 µM

## CC1SC2=NC3=C(c4ccccc4C3=O)C(c3ccccc3Cl)N2C1=O (centres undefined)
[18]
  TGI: > 100 µM
[19]
  TGI: > 100 µM
[3]
  TGI: > 100 µM
[4]
  TGI: > 100 µM
[6]
  TGI: > 100 µM
[9]
  TGI: > 100 µM
[11]
  TGI: > 100 µM
[14]
  TGI: > 100 µM
[17]
  TGI: > 100 µM

## CS(=O)(=O)NNS(=O)(=O)c1ccc(F)cc1
[18]
  TGI: > 100 µM
[19]
  TGI: > 100 µM
[3]
  TGI: > 100 µM
[4]
  TGI: > 100 µM
[6]
  TGI: > 100 µM
[9]
  TGI: > 100 µM
[11]
  TGI: > 100 µM
[13]
  TGI: > 100 µM
[15]
  TGI: > 100 µM
[17]
  TGI: > 100 µM

## Cc1nc(-n2nc(-c3ccccc3)cc2-c2ccccc2)sc1C(=O)/C=C/c1ccc([N+](=O)[O-])cc1
[1]
  TGI: 39.5 µM
[19]
  TGI: > 100 µM
[2]
  TGI: > 100 µM
[3]
  TGI: 28.3 µM
[4]
  TGI: 55.9 µM
[5]
  TGI: > 100 µM
[6]
  TGI: > 100 µM
[7]
  TGI: > 100 µM
[8]
  TGI: > 100 µM
[9]
  TGI: > 54.9 µM
[10]
  TGI: > 100 µM
[11]
  TGI: 45.3 µM
[12]
  TGI: > 100 µM
[13]
  TGI: 49.3 µM
[14]
  TGI: > 100 µM
[20]
  TGI: > 100 µM
[15]
  TGI: 24.2 µM
[16]
  TGI: > 100 µM
[17]
  TGI: > 71.7 µM

## Cn1ccc(=NS(=O)(=O)c2ccccc2)cc1
[18]
  TGI: > 100 µM
[19]
  TGI: > 100 µM
[3]
  TGI: > 100 µM
[4]
  TGI: > 100 µM
[6]
  TGI: > 100 µM
[9]
  TGI: > 100 µM
[11]
  TGI: > 100 µM
[13]
  TGI: > 100 µM
[14]
  TGI: > 100 µM
[20]
  TGI: > 100 µM
[17]
  TGI: > 100 µM

## Oc1ccc(C2Oc3cc(O)cc4c3C2c2cc(O)cc3c2C(c2cc(O)cc5c2C4C(c2ccc(O)cc2)O5)C(c2ccc(O)cc2)O3)cc1 (centres undefined)
[18]
  TGI: > 25 µM
[19]
  TGI: > 25 µM
[3]
  TGI: > 25 µM
[4]
  TGI: 14.1 µM
[9]
  TGI: 22.9 µM
[11]
  TGI: > 25 µM
[14]
  TGI: 16.9 µM
[15]
  TGI: > 25 µM
[17]
  TGI: > 25 µM

## COC(=O)/C(=N\NC(N)=O)C(C#N)c1ccccc1 (centres undefined)
[18]
  TGI: > 100 µM
[3]
  TGI: > 100 µM
[4]
  TGI: > 100 µM
[9]
  TGI: > 100 µM
[11]
  TGI: > 100 µM
[13]
  TGI: > 100 µM
[14]
  TGI: > 100 µM
[20]
  TGI: > 100 µM
[17]
  TGI: > 100 µM

## COc1ccc([Se][Se]c2ccc(OC)cc2OC)c(OC)c1
[18]
  TGI: 4.82 µM
[19]
  TGI: 19.7 µM
[3]
  TGI: 10.5 µM
[4]
  TGI: 5.89 µM
[6]
  TGI: 15.3 µM
[9]
  TGI: 15.3 µM
[11]
  TGI: 20 µM
[13]
  TGI: 6.27 µM
[14]
  TGI: 4.56 µM
[20]
  TGI: 7.04 µM
[17]
  TGI: 5.85 µM

## COC(=O)c1sc2c(=O)c(C(=O)OC)c(C(=O)OC)sc2c(=O)c1C(=O)OC
[1]
  TGI: > 100 µM
[2]
  TGI: > 100 µM
[3]
  TGI: > 100 µM
[4]
  TGI: > 100 µM
[5]
  TGI: > 100 µM
[6]
  TGI: > 100 µM
[7]
  TGI: > 100 µM
[8]
  TGI: > 100 µM
[9]
  TGI: > 100 µM
[10]
  TGI: > 100 µM
[11]
  TGI: > 100 µM
[12]
  TGI: > 100 µM
[13]
  TGI: > 100 µM
[14]
  TGI: > 100 µM
[15]
  TGI: > 100 µM
[16]
  TGI: > 100 µM
[17]
  TGI: > 100 µM

## COc1ccc2nc3cc([N+](=O)[O-])ccc3c(Nc3ccc(S(=O)(=O)Nc4ncccn4)cc3)c2c1
[1]
  TGI: > 100 µM
[2]
  TGI: > 100 µM
[3]
  TGI: > 100 µM
[4]
  TGI: > 100 µM
[5]
  TGI: 92.4 µM
[6]
  TGI: > 100 µM
[7]
  TGI: > 100 µM
[8]
  TGI: > 100 µM
[9]
  TGI: > 23.2 µM
[10]
  TGI: > 100 µM
[11]
  TGI: > 100 µM
[12]
  TGI: > 100 µM
[13]
  TGI: > 100 µM
[14]
  TGI: > 100 µM
[15]
  TGI: > 30.5 µM
[16]
  TGI: > 100 µM
[17]
  TGI: > 100 µM

## C[N+](C)(C)C1CC([N+](C)(C)C)C2c3ccccc3C21 (centres undefined)
[18]
  TGI: > 100 µM
[19]
  TGI: > 100 µM
[3]
  TGI: > 100 µM
[4]
  TGI: > 100 µM
[6]
  TGI: > 100 µM
[9]
  TGI: > 100 µM
[11]
  TGI: > 100 µM
[13]
  TGI: > 100 µM
[14]
  TGI: > 100 µM
[20]
  TGI: > 100 µM
[17]
  TGI: > 100 µM

## O=S1(=O)c2cc(S(=O)(=O)n3ccnc3)ccc2NC2=NCCCN21
[18]
  TGI: 49.6 µM
[3]
  TGI: 85.8 µM
[4]
  TGI: 36.4 µM
[6]
  TGI: > 100 µM
[9]
  TGI: > 100 µM
[11]
  TGI: 47.8 µM
[14]
  TGI: > 100 µM
[15]
  TGI: 75.6 µM
[17]
  TGI: > 100 µM

## N#Cc1ccccc1NC(=O)C(=O)C(C(=O)c1ccncc1)C1OC(=O)c2ccccc21 (centres undefined)
[18]
  TGI: > 100 µM
[3]
  TGI: > 100 µM
[4]
  TGI: > 100 µM
[6]
  TGI: > 100 µM
[9]
  TGI: > 100 µM
[11]
  TGI: > 100 µM
[13]
  TGI: > 100 µM
[14]
  TGI: > 100 µM
[20]
  TGI: > 100 µM
[15]
  TGI: > 100 µM
[17]
  TGI: > 100 µM

## CCc1cccc(C(C)CC)c1NC(=O)C(=O)Cc1nc2ccccc2o1 (centres undefined)
[18]
  TGI: > 50 µM
[19]
  TGI: > 50 µM
[3]
  TGI: > 50 µM
[4]
  TGI: > 50 µM
[6]
  TGI: > 50 µM
[9]
  TGI: > 50 µM
[11]
  TGI: > 50 µM
[13]
  TGI: > 50 µM
[14]
  TGI: > 50 µM
[20]
  TGI: > 50 µM
[17]
  TGI: > 50 µM

## C=CCCCN1CCCCC1=S
[18]
  TGI: > 100 µM
[19]
  TGI: > 100 µM
[3]
  TGI: > 100 µM
[4]
  TGI: > 100 µM
[6]
  TGI: > 100 µM
[9]
  TGI: > 100 µM
[11]
  TGI: > 100 µM
[13]
  TGI: > 100 µM
[14]
  TGI: > 100 µM
[15]
  TGI: > 100 µM
[17]
  TGI: > 100 µM
